Measurements from the supplement of paper PMC12463676, “Small-molecule dissolution of stress granules by redox modulation benefits ALS models” (Nature Chemical Biology, 2025).

Experiments:
[1] = compound: NC(=O)CCCCC1CCSS1 [lipoamide]; experiment: thermal stability z-score vs DMSO; higher = more thermally stabilized by treatment; settings: HeLa, lipoamide concentration 100 µM
Method: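 Cellular thermal proteome profiling in HeLa cells. Cells were treated with 100 µM lipoamide for 1 h, with or without 1 mM arsenate for a further 1 h, then heated to ten temperatures (37-66.3 °C), and soluble protein was quantified by TMT mass spectrometry relative to 0.1% DMSO controls. The thermal stability score (sum of log2 fold changes minus the abundance score) was transformed to a z-score; mean of n = 3 experiments.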

[2] = compound: O=[As]([O-])(O)O.[K+] [potassium arsenate]; experiment: as above; settings: HeLa; arsenate concentration 1 mM
Method: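 Cellular thermal proteome profiling in HeLa cells treated with 1 mM arsenate for 1 h (DMSO pretreatment), heated to ten temperatures (37-66.3 °C). Soluble protein was quantified by TMT mass spectrometry relative to DMSO controls; the thermal stability score was transformed to a z-score; mean of n = 3 experiments.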

[3] = arsenate co-treatment: 1 mM arsenate 1 h
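Note: each temperature applied for 3 min, abundance score taken as mean log2 fold change at the two lowest temperatures, z-score obtained by mean subtraction and division by SD.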

UniProt Q7Z2K8, sequence (Q7Z2K8 whole entry): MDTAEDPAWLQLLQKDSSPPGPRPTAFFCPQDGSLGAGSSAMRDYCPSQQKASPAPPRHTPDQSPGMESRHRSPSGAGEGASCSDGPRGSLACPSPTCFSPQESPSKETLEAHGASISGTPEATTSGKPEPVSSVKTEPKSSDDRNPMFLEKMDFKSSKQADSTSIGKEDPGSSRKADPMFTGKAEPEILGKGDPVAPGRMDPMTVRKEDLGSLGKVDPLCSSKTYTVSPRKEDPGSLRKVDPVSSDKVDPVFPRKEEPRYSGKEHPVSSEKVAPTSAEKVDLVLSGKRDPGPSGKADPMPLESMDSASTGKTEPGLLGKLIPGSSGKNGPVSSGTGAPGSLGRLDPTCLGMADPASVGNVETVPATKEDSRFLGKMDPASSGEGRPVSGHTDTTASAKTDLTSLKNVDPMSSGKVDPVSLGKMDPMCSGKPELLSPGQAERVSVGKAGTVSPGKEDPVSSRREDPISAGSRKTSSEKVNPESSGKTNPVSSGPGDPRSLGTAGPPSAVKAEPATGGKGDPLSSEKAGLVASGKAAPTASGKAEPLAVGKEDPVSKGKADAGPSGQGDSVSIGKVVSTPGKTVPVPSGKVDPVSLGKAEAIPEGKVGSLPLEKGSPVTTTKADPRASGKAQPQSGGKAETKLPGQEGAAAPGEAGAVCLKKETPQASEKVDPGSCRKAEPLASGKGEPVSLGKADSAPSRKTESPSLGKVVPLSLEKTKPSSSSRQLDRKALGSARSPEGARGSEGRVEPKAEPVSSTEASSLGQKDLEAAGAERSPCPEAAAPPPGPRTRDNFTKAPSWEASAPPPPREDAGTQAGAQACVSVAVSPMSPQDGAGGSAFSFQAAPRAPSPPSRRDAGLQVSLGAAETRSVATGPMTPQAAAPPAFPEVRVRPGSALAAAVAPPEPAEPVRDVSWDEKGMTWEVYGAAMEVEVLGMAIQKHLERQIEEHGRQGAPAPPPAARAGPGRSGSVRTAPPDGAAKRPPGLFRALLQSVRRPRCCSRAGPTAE
UniProt Q9NUW8, sequence (Q9NUW8 whole entry): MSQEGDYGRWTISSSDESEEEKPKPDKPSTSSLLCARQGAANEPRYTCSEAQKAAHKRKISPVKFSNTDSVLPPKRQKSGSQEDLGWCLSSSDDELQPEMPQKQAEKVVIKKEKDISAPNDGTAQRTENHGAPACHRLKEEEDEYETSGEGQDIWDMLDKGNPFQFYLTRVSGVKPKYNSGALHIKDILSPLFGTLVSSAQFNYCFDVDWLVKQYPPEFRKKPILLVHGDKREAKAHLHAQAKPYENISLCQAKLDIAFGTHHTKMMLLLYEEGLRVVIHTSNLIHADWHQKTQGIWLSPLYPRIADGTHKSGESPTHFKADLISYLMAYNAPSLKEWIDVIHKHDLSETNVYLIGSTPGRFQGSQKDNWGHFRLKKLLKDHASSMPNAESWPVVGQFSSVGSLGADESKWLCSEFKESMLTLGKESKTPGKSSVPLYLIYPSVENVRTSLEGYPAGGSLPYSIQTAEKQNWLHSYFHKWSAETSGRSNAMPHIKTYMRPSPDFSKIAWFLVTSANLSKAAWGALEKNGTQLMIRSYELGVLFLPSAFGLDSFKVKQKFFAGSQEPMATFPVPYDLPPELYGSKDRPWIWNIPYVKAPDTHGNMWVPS
UniProt Q9H4Z3, sequence (Q9H4Z3 whole entry): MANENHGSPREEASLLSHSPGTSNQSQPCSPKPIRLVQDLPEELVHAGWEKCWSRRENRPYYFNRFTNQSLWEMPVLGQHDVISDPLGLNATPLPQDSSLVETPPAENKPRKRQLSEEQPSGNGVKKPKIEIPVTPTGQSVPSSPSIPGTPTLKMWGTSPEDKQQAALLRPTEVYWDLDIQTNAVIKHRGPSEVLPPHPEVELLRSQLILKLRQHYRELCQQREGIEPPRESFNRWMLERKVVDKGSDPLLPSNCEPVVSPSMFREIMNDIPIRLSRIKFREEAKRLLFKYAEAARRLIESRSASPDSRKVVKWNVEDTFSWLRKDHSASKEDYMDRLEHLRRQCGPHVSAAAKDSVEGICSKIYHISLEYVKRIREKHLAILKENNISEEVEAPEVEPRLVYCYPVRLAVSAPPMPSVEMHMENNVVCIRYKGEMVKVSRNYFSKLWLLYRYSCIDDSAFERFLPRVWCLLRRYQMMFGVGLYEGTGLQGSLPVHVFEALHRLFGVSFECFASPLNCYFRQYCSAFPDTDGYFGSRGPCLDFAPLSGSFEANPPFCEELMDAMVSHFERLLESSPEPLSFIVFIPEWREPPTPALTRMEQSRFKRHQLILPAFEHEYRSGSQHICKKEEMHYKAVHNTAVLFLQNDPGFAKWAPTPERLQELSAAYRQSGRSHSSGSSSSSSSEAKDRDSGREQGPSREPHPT
UniProt Q9UPR0, sequence (Q9UPR0 whole entry): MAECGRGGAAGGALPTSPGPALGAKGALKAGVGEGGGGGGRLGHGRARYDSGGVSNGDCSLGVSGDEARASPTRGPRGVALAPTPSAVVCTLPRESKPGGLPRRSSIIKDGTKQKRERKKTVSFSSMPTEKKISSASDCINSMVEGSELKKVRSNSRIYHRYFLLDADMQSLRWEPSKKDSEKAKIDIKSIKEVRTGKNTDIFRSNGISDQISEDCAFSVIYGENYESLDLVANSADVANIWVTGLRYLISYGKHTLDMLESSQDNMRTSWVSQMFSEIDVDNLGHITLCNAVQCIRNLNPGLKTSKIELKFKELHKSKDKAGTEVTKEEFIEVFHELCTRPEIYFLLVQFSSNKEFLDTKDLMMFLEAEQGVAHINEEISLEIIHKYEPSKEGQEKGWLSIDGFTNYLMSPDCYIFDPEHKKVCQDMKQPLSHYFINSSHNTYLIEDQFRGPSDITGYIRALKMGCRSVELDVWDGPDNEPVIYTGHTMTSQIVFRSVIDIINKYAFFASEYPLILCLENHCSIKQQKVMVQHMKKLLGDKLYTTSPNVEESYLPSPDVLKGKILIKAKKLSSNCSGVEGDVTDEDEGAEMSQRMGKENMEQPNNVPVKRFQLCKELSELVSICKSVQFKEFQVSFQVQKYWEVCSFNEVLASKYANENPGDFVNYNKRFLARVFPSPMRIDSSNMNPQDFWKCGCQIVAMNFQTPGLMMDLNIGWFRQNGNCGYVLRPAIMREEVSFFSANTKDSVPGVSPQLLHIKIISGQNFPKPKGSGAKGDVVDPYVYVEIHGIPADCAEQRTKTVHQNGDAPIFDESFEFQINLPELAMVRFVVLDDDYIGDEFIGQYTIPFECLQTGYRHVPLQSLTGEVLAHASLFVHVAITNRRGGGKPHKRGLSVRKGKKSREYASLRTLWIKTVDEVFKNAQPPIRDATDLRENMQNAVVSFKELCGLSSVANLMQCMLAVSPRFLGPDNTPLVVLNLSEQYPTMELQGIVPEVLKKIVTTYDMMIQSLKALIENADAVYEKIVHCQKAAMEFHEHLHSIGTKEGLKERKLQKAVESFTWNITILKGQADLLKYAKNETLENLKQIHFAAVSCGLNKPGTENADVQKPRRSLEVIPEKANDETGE
UniProt Q6PK18, sequence (Q6PK18 whole entry): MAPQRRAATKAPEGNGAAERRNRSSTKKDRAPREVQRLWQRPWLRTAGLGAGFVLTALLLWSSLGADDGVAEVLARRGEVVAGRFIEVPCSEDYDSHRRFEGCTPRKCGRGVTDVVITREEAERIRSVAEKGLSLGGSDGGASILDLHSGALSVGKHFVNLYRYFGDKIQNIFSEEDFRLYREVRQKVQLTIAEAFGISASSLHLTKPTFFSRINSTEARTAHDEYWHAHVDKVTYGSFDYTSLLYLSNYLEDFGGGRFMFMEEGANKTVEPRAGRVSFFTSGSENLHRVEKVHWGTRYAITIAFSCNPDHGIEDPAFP
UniProt O00303, sequence (O00303 whole entry): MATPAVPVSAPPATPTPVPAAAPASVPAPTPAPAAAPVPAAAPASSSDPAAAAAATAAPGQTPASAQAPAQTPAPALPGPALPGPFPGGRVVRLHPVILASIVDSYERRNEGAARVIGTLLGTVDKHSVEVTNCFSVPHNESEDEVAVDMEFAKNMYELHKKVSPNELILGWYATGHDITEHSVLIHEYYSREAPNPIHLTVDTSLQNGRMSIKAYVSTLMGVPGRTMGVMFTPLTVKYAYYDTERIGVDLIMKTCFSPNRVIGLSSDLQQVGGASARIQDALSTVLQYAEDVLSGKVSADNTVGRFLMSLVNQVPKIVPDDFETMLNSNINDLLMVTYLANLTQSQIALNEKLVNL
UniProt Q96GQ7, sequence (Q96GQ7 whole entry): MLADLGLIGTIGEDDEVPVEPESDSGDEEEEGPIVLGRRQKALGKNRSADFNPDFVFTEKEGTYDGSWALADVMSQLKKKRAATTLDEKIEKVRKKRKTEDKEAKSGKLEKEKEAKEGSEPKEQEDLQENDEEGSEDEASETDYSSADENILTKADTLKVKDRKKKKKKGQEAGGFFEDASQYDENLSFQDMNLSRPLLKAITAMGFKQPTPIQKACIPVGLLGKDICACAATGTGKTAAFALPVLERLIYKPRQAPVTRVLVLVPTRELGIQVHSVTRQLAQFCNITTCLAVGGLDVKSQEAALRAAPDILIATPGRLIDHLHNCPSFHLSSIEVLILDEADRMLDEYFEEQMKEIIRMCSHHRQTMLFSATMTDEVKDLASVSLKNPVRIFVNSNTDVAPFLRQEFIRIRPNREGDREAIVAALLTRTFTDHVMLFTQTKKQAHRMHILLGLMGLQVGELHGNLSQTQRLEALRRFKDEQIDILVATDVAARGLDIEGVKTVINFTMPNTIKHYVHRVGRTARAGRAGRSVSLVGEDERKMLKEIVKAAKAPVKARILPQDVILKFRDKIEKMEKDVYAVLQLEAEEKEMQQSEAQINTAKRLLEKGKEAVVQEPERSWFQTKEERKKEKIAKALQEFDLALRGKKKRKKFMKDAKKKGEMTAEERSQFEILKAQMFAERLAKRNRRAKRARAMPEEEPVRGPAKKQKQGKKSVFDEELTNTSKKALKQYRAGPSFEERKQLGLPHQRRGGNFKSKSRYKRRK
UniProt Q9NRF9, sequence (Q9NRF9 whole entry): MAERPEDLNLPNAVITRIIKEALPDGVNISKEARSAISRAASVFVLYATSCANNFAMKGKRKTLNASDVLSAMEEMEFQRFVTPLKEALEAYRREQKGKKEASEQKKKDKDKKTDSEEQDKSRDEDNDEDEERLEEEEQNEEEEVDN

| Target | thermal stability z-score [1, 3] | thermal stability z-score ([1]; arsenate co-treatment: none) | thermal stability z-score [2] |
| --- | --- | --- | --- |
| STK17A (UniProt Q9UEE5) | -0.0669 | -0.0755 | 0.0862 |
| HM13 (UniProt Q8TCT9) | 0.0446 | -0.0484 | 0.759 |
| COX5B (UniProt P10606) | 1.26 | 1.21 | -0.926 |
| IPPK (UniProt Q9H8X2) | 0.199 | 0.487 | 0.0883 |
| KATNA1 (UniProt O75449) | -0.664 | 0.155 | -0.539 |
| COMMD10 (UniProt Q9Y6G5) | 0.107 | 0.18 | 0.307 |
| PLCL2 (UniProt Q9UPR0) | -0.2 | -0.373 | -0.417 |
| SNRNP40 (UniProt Q96DI7) | 0.383 | -0.0333 | -0.213 |
| OGFOD3 (UniProt Q6PK18) | 0.0324 | -0.274 | -0.0712 |
| KPNA1 (UniProt P52294) | -0.0607 | -0.0226 | 0.239 |
| ANKRD54 (UniProt Q6NXT1) | -0.042 | -0.267 | -0.49 |
| SEC62 (UniProt Q99442) | 0.39 | 0.266 | -0.75 |
| VPS28 (UniProt Q9UK41) | 0.513 | 0.681 | 0.492 |
| DHDDS (UniProt Q86SQ9) | 1.01 | 0.391 | 0.205 |
| CAPZA1 (UniProt P52907) | -0.236 | 0.183 | 0.38 |
| AJUBA (UniProt Q96IF1) | -0.32 | -0.207 | -0.562 |
| APRT (UniProt P07741) | 0.387 | 0.419 | 0.345 |
| SNRPA1 (UniProt P09661) | 1.91 | 1.08 | 0.474 |
| PANK2 (UniProt Q9BZ23) | 0.583 | 0.588 | 0.53 |
| MAP3K7 (UniProt O43318) | 0.164 | 0.123 | 0.066 |
| UGT8 (UniProt Q16880) | 0.0311 | -0.0518 | 0.235 |
| PCIF1 (UniProt Q9H4Z3) | 0.0909 | 0.207 | -0.0419 |
| DISP1 (UniProt Q96F81) | 0.342 | 0.512 | -1.07 |
| NUP153 (UniProt P49790) | 0.99 | 0.627 | 3.83 |

| Target | thermal stability z-score [1, 3] | thermal stability z-score ([1]; arsenate co-treatment: none) | thermal stability z-score [2] |
| --- | --- | --- | --- |
| GPRIN1 (UniProt Q7Z2K8) | 0.529 | -0.0428 | -0.256 |
| PBK (UniProt Q96KB5) | -0.583 | -0.307 | 0.533 |
| CASP4 (UniProt P49662) | 0.133 | 0.419 | 0.496 |
| ASPHD1 (UniProt Q5U4P2) | -0.334 | 0.214 | -0.276 |
| SPAG7 (UniProt O75391) | 0.493 | 0.212 | -0.214 |
| AGFG1 (UniProt P52594) | -0.348 | -0.424 | -0.387 |
| ECD (UniProt O95905) | -0.47 | -0.00943 | -0.232 |
| RAI14 (UniProt Q9P0K7) | -0.47 | -0.419 | -0.554 |
| RASA3 (UniProt Q14644) | 0.0194 | 0.0519 | 0.0995 |
| RAB27B (UniProt O00194) | 0.463 | 0.0912 | 0.58 |
| PTPN2 (UniProt P17706) | 0.0491 | 0.308 | 0.95 |
| LMAN2 (UniProt Q12907) | -1.93 | -1.77 | 0.284 |
| P4HTM (UniProt Q9NXG6) | 0.0884 | -0.262 | -0.0889 |
| AP4E1 (UniProt Q9UPM8) | -0.117 | -0.092 | -0.068 |
| TRIM3 (UniProt O75382) | 0.012 | 0.061 | -0.044 |
| DDX27 (UniProt Q96GQ7) | 0.47 | 0.52 | -0.231 |
| GOLPH3 (UniProt Q9H4A6) | -0.65 | -0.881 | -0.641 |
| PEPD (UniProt P12955) | 0.359 | 0.112 | -0.732 |
| YWHAH (UniProt Q04917) | 0.0489 | 0.303 | 0.138 |
| TDP1 (UniProt Q9NUW8) | 0.0423 | -0.0239 | -0.00328 |
| NUMA1 (UniProt Q14980) | 0.34 | 0.207 | -1.48 |
| AARSD1 (UniProt Q9BTE6) | 0.0117 | 0.0955 | 0.428 |
| NAF1 (UniProt Q96HR8) | 0.316 | 0.23 | 0.149 |
| SMC5 (UniProt Q8IY18) | 0.427 | -0.175 | 1.83 |

| Target | thermal stability z-score [1, 3] | thermal stability z-score ([1]; arsenate co-treatment: none) | thermal stability z-score [2] |
| --- | --- | --- | --- |
| POLG (UniProt P54098) | 0.0493 | 0.0533 | 0.0154 |
| MYO5C (UniProt Q9NQX4) | 0.173 | 0.236 | 0.0128 |
| RALGAPB (UniProt Q86X10) | -0.0332 | -0.00538 | -0.112 |
| SMARCB1 (UniProt Q12824) | -0.25 | -0.186 | -0.198 |
| KIF1C (UniProt O43896) | -0.00389 | 0.0165 | -0.086 |
| GOLT1B (UniProt Q9Y3E0) | 0.0321 | 0.0691 | -0.117 |
| BIN3 (UniProt Q9NQY0) | -0.115 | -0.19 | -0.201 |
| TBC1D13 (UniProt Q9NVG8) | 0.33 | 0.109 | -0.494 |
| RUSC1 (UniProt Q9BVN2) | 0.0753 | 0.00504 | -0.0614 |
| LRRC8A (UniProt Q8IWT6) | 0.614 | 0.234 | -0.275 |
| NCOR1 (UniProt O75376) | -0.0471 | -0.0243 | -0.0899 |
| EPHX1 (UniProt P07099) | 3.16 | 3.19 | 0.24 |
| FDPS (UniProt P14324) | -0.000727 | -0.16 | -0.437 |
| WDR92 (UniProt Q96MX6) | -0.0904 | -0.202 | 0.368 |
| PARG (UniProt Q86W56) | -0.123 | 0.257 | 0.0362 |
| ZFAND5 (UniProt O76080) | 1.13 | 0.84 | 0.118 |
| POLE3 (UniProt Q9NRF9) | -0.405 | -0.285 | 0.375 |
| MGAT1 (UniProt P26572) | -0.313 | -0.685 | -0.0516 |
| STAU2 (UniProt Q9NUL3) | -0.183 | -0.124 | -0.323 |
| TMEM70 (UniProt Q9BUB7) | 0.461 | -0.347 | 0.259 |
| GLYR1 (UniProt Q49A26) | 0.0933 | -0.0315 | -0.145 |
| EIF3F (UniProt O00303) | -0.117 | -0.0503 | -0.156 |
| ZNHIT6 (UniProt Q9NWK9) | 1.08 | 0.924 | 0.0739 |
